Test results published in patent publication US20250025451A1, “TREATMENT OF CANCER WITH KDM4 INHIBITORS” (Celgene Corporation, priority 2021, published 2025).

Tested on: 301 cancer cell lines from different tumor types
Assay: 2D cell viability inhibition assay, broad cancer cell line panel (OncoPanel; CellTiter-Glo)
Type: cell-based
Parameters: key to Emax: % of DMSO control (minimum response over dose range); AUC: scale not given here
Conditions: for AUC / Emax: 168 hours; for Emax: in % (unit assumed)
Description: In a larger screening study, compound 1 was evaluated across a broad cancer cell line panel (OncoPanel; HD Biosciences) composed of 301 cancer cell lines from different tumor types.
2D cell viability inhibition assays were performed in multiwell plates seeded with cells from the panel. After seeding, the plates were cultured overnight in a humidified incubator at 37° C. to promote adherence. Assays were initiated in individual wells by adding either DMSO as a vehicle control, growth media as a blank, or serially diluted compound 1 (10 μM to 0.0005 μM with 1:3 serial dilution). Cultures were incubated for 168 hours after which the number of viable cells in each test well was assessed using the CellTiter-Glo® Luminescent Cell Viability Assay. Luminescence readouts were performed using an EnVision® Multilabel Reader and the compound 1 readouts were normalized to the DMSO control readouts, expressed as a percent of the control. Outliers were flagged out by visual inspection. Percent of control was plotted against the corresponding compound 1 concentration and the absolute IC50 value was determined using four-parameter logistic non-linear regression as the concentration where inhibition was 50% of the control. […] Emax was recorded as the minimum in y with the compound dose range. […] The sensitive/moderate/resistant calls for each cell line was determined by visually inspecting the resulting clustering dendrogram. All the analyses were done in R Core Team.

[1] = Homo sapiens, NCI-H1650, 168 h, NCIH1650 (lung, bronchioloalveolar adenocarcinoma)
[2] = Homo sapiens, NCI-H1755, 168 h, NCIH1755 (lung, adenocarcinoma)
[3] = Homo sapiens, NCI-H1838, 168 h, NCIH1838 (lung, non-small cell carcinoma)
[4] = Homo sapiens, NCI-H2009, 168 h, NCIH2009 (lung, adenocarcinoma)
[5] = Homo sapiens, ONS-76, 168 h, ONS76 (central nervous system, NS)
[6] = Homo sapiens, OVCAR-3, 168 h, NIHOVCAR3 (ovary, NS)
[7] = Homo sapiens, RPMI-7951, 168 h, RPMI7951 (skin, NS)
[8] = Homo sapiens, SAOS-2, 168 h, SAOS2 (bone, NS)
[9] = Homo sapiens, SCC-9, 168 h, SCC9 (upper aerodigestive tract, squamous cell carcinoma)
[10] = Homo sapiens, SCC-15, 168 h, SCC15 (upper aerodigestive tract, squamous cell carcinoma)
[11] = Homo sapiens, SCC-25, 168 h, SCC25 (upper aerodigestive tract, squamous cell carcinoma)
[12] = Homo sapiens, SK-HEP1, 168 h, SKHEP1 (liver, adenocarcinoma)
[13] = Homo sapiens, SK-MEL-24, 168 h, SKMEL24 (skin, NS)
[14] = Homo sapiens, SK-N-SH, 168 h, SKNSH (autonomic ganglia, NS)
[15] = Homo sapiens, SK-OV-3, 168 h, SKOV3 (ovary, adenocarcinoma)
[16] = Homo sapiens, SNU-C1, 168 h, SNUC1 (large intestine, adenocarcinoma)
[17] = Homo sapiens, SW837, 168 h, SW837 (large intestine, adenocarcinoma)
[18] = Homo sapiens, SW1417, 168 h, SW1417 (large intestine, adenocarcinoma)
[19] = Homo sapiens, TE-15, 168 h, TE15 (oesophagus, squamous cell carcinoma)
[20] = Homo sapiens, UACC-812, 168 h, UACC812 (breast, ductal carcinoma)
[21] = Homo sapiens, VCaP, 168 h, VCAP (prostate, adenocarcinoma)
[22] = KASUMI1 (haematopoietic and lymphoid tissue, acute myeloid leukaemia)
[23] = KG1 (haematopoietic and lymphoid tissue, acute myeloid leukaemia)
[24] = KURAMOCHI (ovary, undifferentiated carcinoma)
[25] = KYSE70 (oesophagus, squamous cell carcinoma)
[26] = LU99 (lung, large cell carcinoma)
[27] = MDAMB157 (breast, ductal carcinoma)
[28] = MDAMB 175 VII (breast, ductal carcinoma)
[29] = NCI-H1435, 168 h, NCIH1435 (lung, non-small cell carcinoma)
[30] = NCIH596 (lung, mixed adenosquamous carcinoma)
[31] = NCIH1395 (lung, adenocarcinoma)
[32] = NCIH1435 (lung, non-small cell carcinoma)
[33] = NCIH1563 (lung, adenocarcinoma)
[34] = NCIH1573 (lung, adenocarcinoma)
[35] = NCIH1650 (lung, bronchioloalveolar adenocarcinoma)
[36] = NCIH1755 (lung, adenocarcinoma)
[37] = NCIH1838 (lung, non-small cell carcinoma)
[38] = NCIH2009 (lung, adenocarcinoma)
[39] = NMCG1 (central nervous system, NS)
[40] = ONS76 (central nervous system, NS)
[41] = SCC9 (upper aerodigestive tract, squamous cell carcinoma)
[42] = SCC15 (upper aerodigestive tract, squamous cell carcinoma)
[43] = SCC25 (upper aerodigestive tract, squamous cell carcinoma)
[44] = SNUC1 (large intestine, adenocarcinoma)
[45] = SW579 (thyroid, anaplastic carcinoma)
[46] = SW579, 168 h, SW579 (thyroid, anaplastic carcinoma)
[47] = SW837 (large intestine, adenocarcinoma)
[48] = SW1271 (lung, small cell carcinoma)
[49] = SW1271, 168 h, SW1271 (lung, small cell carcinoma)
[50] = SW1417 (large intestine, adenocarcinoma)
[51] = T24 (urinary tract, transitional cell carcinoma)
[52] = TE1 (oesophagus, squamous cell carcinoma)
[53] = TE8 (oesophagus, squamous cell carcinoma)
[54] = TE15 (oesophagus, squamous cell carcinoma)
[55] = UACC812 (breast, ductal carcinoma)
[56] = VCAP (prostate, adenocarcinoma)

## CC(C)c1ccc(N(C)c2ccc3c(c2)OCC[C@H]3CNc2cnccc2C(=O)O)cc1 [Compound 1, 3-({[(4R)-7-{methyl[4-(propan-2-yl)phenyl]amino}-3,4-dihydro-2H-1-benzopyran-4-yl]methyl}amino)pyridine-4-carboxylic acid]
[1]
  EC50: ≥ 10 µM
  IC50: ≥ 10 µM
[2]
  EC50: ≥ 10 µM
  IC50: ≥ 10 µM
[3]
  EC50: ≥ 10 µM
  IC50: ≥ 10 µM
[4]
  EC50: 8.02 µM
  IC50: ≥ 10 µM
[5]
  EC50: ≥ 10 µM
  IC50: ≥ 10 µM
[6]
  EC50: ≥ 10 µM
  IC50: ≥ 10 µM
[7]
  EC50: ≥ 10 µM
  IC50: ≥ 10 µM
[8]
  EC50: ≥ 10 µM
  IC50: ≥ 10 µM
[9]
  EC50: ≥ 10 µM
  IC50: ≥ 10 µM
[10]
  EC50: ≥ 10 µM
  IC50: ≥ 10 µM
[11]
  EC50: ≥ 10 µM
  IC50: ≥ 10 µM
[12]
  EC50: ≥ 10 µM
  IC50: ≥ 10 µM
[13]
  EC50: ≥ 10 µM
  IC50: ≥ 10 µM
[14]
  EC50: ≥ 10 µM
  IC50: ≥ 10 µM
[15]
  EC50: ≥ 10 µM
  IC50: ≥ 10 µM
[16]
  EC50: ≥ 10 µM
  IC50: ≥ 10 µM
[17]
  EC50: ≥ 10 µM
  IC50: ≥ 10 µM
[18]
  EC50: ≥ 10 µM
  IC50: ≥ 10 µM
[19]
  EC50: ≥ 10 µM
  IC50: ≥ 10 µM
[20]
  EC50: 6.95 µM
  IC50: ≥ 10 µM
[21]
  EC50: ≥ 10 µM
  IC50: ≥ 10 µM
[22]
  AUC: 0.8823
  Emax: 81.08
[23]
  AUC: 0.9592
  Emax: 80.44
[24]
  AUC: 0.8742
  Emax: 73.85
[25]
  AUC: 0.6942
  Emax: 50.19
[26]
  AUC: 0.79
  Emax: 64.66
MALME3M (skin, NS)
  AUC: 0.9867
  Emax: 94.08
[27]
  AUC: 0.8362
  Emax: 64.71
[28]
  AUC: 0.7385
  Emax: 60.66
MDAMB231 (breast, NS)
  AUC: 0.7262
  Emax: 55.94
MDAMB361 (breast, NS)
  AUC: 1.117
  Emax: 94.55
MDAMB415 (breast, NS)
  AUC: 0.9413
  Emax: 83.39
MDAMB436 (breast, NS)
  AUC: 0.8438
  Emax: 70.42
MDAMB468 (breast, NS)
  AUC: 0.6972
  Emax: 50.87
MEWO (skin, NS)
  AUC: 0.7237
  Emax: 56.56
[29]
  EC50: ≥ 10 µM
  IC50: ≥ 10 µM
NCIH441 (lung, adenocarcinoma)
  AUC: 0.7804
  Emax: 67.49
[30]
  AUC: 0.8151
  Emax: 61.34
[31]
  AUC: 0.8542
  Emax: 70.68
[32]
  AUC: 0.7612
  Emax: 60.04
[33]
  AUC: 0.9652
  Emax: 93.507
[34]
  AUC: 0.7482
  Emax: 53.57
[35]
  AUC: 0.8746
  Emax: 68.07
[36]
  AUC: 1.29
  Emax: 123.3293
[37]
  AUC: 0.7858
  Emax: 60.0585
[38]
  AUC: 0.7914
  Emax: 55.69
NIHOVCAR3 (ovary, NS)
  AUC: 0.7771
  Emax: 59.47
[39]
  AUC: 0.7013
  Emax: 47.06
[40]
  AUC: 0.7336
  Emax: 54.63
RPMI7951 (skin, NS)
  AUC: 0.8067
  Emax: 66.31
SAOS2 (bone, NS)
  AUC: 1.081
  Emax: 92.52
[41]
  AUC: 0.9424
  Emax: 69.25
[42]
  AUC: 0.9489
  Emax: 90.39
[43]
  AUC: 0.7789
  Emax: 62.3079
SKHEP1 (liver, adenocarcinoma)
  AUC: 0.7091
  Emax: 44.3029
SKMEL24 (skin, NS)
  AUC: 0.7882
  Emax: 58.12
SKMEL31 (skin, NS)
  AUC: 0.7393
  Emax: 59.49
SKNSH (autonomic ganglia, NS)
  AUC: 0.7295
  Emax: 53.89
SKOV3 (ovary, adenocarcinoma)
  AUC: 0.9901
  Emax: 96.03
[44]
  AUC: 0.7478
  Emax: 55.45
[45]
  AUC: 0.9203
  Emax: 79.98
[46]
  EC50: ≥ 10 µM
  IC50: ≥ 10 µM
[47]
  AUC: 0.7109
  Emax: 46.73
[48]
  AUC: 0.8179
  Emax: 65.38
[49]
  EC50: ≥ 10 µM
  IC50: ≥ 10 µM
[50]
  AUC: 0.9634
  Emax: 91.96
[51]
  AUC: 0.9289
  Emax: 75.74
[52]
  AUC: 0.938
  Emax: 84.54
[53]
  AUC: 0.816
  Emax: 72.1307
[54]
  AUC: 1.084
  Emax: 89.04
[55]
  AUC: 0.8418
  Emax: 62.67
[56]
  AUC: 0.7822
  Emax: 62.6
